Reference: ChEMBL document CHEMBL1144422, “Symmetrical bis-quinolinium compounds: new human choline kinase inhibitors with antiproliferative activity against the HT-29 cell line” (J Med Chem, 2005)

Experiments:
HT-29 [1] = assay: In vitro antiproliferative effect in […] HT 29 cells; type: functional, cell-based; details: Homo sapiens
Choline kinase alpha = Choline kinase alpha (Homo sapiens, UniProt P35790); assay: Ex vivo inhibitory concentration against human choline kinase
HT-29 [2] = assay: Antiproliferative activity against HT 29 cells; type: functional, cell-based; details: Homo sapiens

Sequence of Choline kinase alpha (P35790 whole entry): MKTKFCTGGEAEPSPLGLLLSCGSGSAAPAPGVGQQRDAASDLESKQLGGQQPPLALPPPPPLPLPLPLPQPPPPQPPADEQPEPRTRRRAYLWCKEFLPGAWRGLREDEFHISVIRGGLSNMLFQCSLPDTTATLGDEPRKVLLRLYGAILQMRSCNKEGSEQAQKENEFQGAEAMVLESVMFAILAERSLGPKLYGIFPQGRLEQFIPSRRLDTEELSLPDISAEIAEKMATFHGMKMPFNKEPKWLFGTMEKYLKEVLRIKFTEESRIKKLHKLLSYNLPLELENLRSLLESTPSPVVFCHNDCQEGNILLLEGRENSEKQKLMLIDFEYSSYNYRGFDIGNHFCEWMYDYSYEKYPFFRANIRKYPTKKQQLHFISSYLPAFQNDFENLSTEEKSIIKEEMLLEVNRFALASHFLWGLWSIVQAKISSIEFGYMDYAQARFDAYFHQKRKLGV

Compound: Clc1ccc2c(N3CCCC3)cc[n+](Cc3cccc(-c4cccc(C[n+]5ccc(N6CCCC6)c6ccc(Cl)cc65)c4)c3)c2c1
- IC50 (HT-29 [1]): 0.4 µM

Compound: CN(c1ccccc1)c1cc[n+](Cc2cccc(-c3cccc(C[n+]4ccc(N(C)c5ccccc5)c5ccccc54)c3)c2)c2ccccc12
- IC50 (HT-29 [1]): 0.8 µM
- IC50 (Choline kinase alpha): 0.4 µM

Compound: Nc1cc[n+](Cc2cccc(-c3cccc(C[n+]4ccc(N)c5ccc(Cl)cc54)c3)c2)c2cc(Cl)ccc12
- IC50 (HT-29 [1]): 1.9 µM
- IC50 (Choline kinase alpha): 20.6 µM

Compound: c1ccc(Nc2cc[n+](Cc3cccc(-c4cccc(C[n+]5ccc(Nc6ccccc6)c6ccccc65)c4)c3)c3ccccc23)cc1
- IC50 (HT-29 [1]): 1.6 µM
- IC50 (Choline kinase alpha): 1.3 µM

Compound: CN(c1ccc(Cl)cc1)c1cc[n+](Cc2ccc(-c3ccc(C[n+]4ccc(N(C)c5ccc(Cl)cc5)c5ccc(Cl)cc54)cc3)cc2)c2cc(Cl)ccc12
- IC50 (HT-29 [1]): 1.2 µM

Compound: CN(c1ccccc1)c1cc[n+](Cc2ccc(-c3ccc(C[n+]4ccc(N(C)c5ccccc5)c5ccc(Cl)cc54)cc3)cc2)c2cc(Cl)ccc12
- IC50 (HT-29 [1]): 0.5 µM
- IC50 (Choline kinase alpha): 11.4 µM

Compound: CN(C)c1cc[n+](Cc2ccc(-c3ccc(C[n+]4ccc(N(C)C)c5ccccc54)cc3)cc2)c2ccccc12
- IC50 (HT-29 [1]): 1.7 µM
- IC50 (Choline kinase alpha): 39.7 µM

Compound: Cc1c(N)ccc2c(N(C)c3ccccc3)cc[n+](Cc3cccc(-c4cccc(C[n+]5ccc(N(C)c6ccccc6)c6ccc(N)c(C)c65)c4)c3)c12
- IC50 (HT-29 [1]): 3.8 µM
- IC50 (Choline kinase alpha): 56.8 µM

Compound: Nc1cc[n+](Cc2ccc(-c3ccc(C[n+]4ccc(N)c5ccc(Cl)cc54)cc3)cc2)c2cc(Cl)ccc12
- IC50 (HT-29 [1]): 3.2 µM
- IC50 (Choline kinase alpha): 63.3 µM

Compound: c1ccc(Nc2cc[n+](Cc3ccc(-c4ccc(C[n+]5ccc(Nc6ccccc6)c6ccccc65)cc4)cc3)c3ccccc23)cc1
- IC50 (HT-29 [1]): 0.7 µM
- IC50 (Choline kinase alpha): 17.8 µM

Compound: CN(c1ccc(Cl)cc1)c1cc[n+](Cc2ccc(CCc3ccc(C[n+]4ccc(N(C)c5ccc(Cl)cc5)c5ccc(Cl)cc54)cc3)cc2)c2cc(Cl)ccc12
- IC50 (HT-29 [1]): 0.8 µM

Compound: CN(C)c1cc[n+](Cc2ccc(CCc3ccc(C[n+]4ccc(N(C)C)c5ccccc54)cc3)cc2)c2ccccc12
- IC50 (HT-29 [1]): 0.5 µM
- IC50 (Choline kinase alpha): 10.2 µM

Compound: CN(c1ccccc1)c1cc[n+](Cc2ccc(CCc3ccc(C[n+]4ccc(N(C)c5ccccc5)c5ccc(Cl)cc54)cc3)cc2)c2cc(Cl)ccc12
- IC50 (HT-29 [1]): 0.5 µM
- IC50 (Choline kinase alpha): 3.5 µM

Compound: CN(C)c1cc[n+](Cc2cccc(-c3cccc(C[n+]4ccc(N(C)C)c5ccc(Cl)cc54)c3)c2)c2cc(Cl)ccc12
- IC50 (HT-29 [1]): 0.7 µM

Compound: Cc1c(N)ccc2c(N(C)c3ccccc3)cc[n+](Cc3ccc(CCc4ccc(C[n+]5ccc(N(C)c6ccccc6)c6ccc(N)c(C)c65)cc4)cc3)c12
- IC50 (HT-29 [1]): 7 µM
- IC50 (Choline kinase alpha): 133 µM

Compound: Nc1cc[n+](Cc2ccc(CCc3ccc(C[n+]4ccc(N)c5ccccc54)cc3)cc2)c2ccccc12
- IC50 (HT-29 [1]): 2 µM
- IC50 (Choline kinase alpha): 80 µM

Compound: CN(C)c1cc[n+](Cc2ccc(-c3ccc(C[n+]4ccc(N(C)C)c5ccc(Cl)cc54)cc3)cc2)c2cc(Cl)ccc12
- IC50 (HT-29 [1]): 0.8 µM
- IC50 (Choline kinase alpha): 20.6 µM

Compound: c1ccc2c(c1)c(N1CCCCCC1)cc[n+]2Cc1ccc(CCc2ccc(C[n+]3ccc(N4CCCCCC4)c4ccccc43)cc2)cc1
- IC50 (HT-29 [1]): 0.3 µM
- IC50 (Choline kinase alpha): 0.6 µM

Compound: c1ccc(Nc2cc[n+](Cc3ccc(CCc4ccc(C[n+]5ccc(Nc6ccccc6)c6ccccc65)cc4)cc3)c3ccccc23)cc1
- IC50 (HT-29 [1]): 0.3 µM
- IC50 (Choline kinase alpha): 2.3 µM

Compound: CN(c1ccccc1)c1cc[n+](Cc2ccc(CCc3ccc(C[n+]4ccc(N(C)c5ccccc5)c5ccccc54)cc3)cc2)c2ccccc12
- IC50 (HT-29 [1]): 0.7 µM
- IC50 (Choline kinase alpha): 1.4 µM

Compound: Cc1c[n+](Cc2ccc(-c3ccc(C[n+]4cc(C)c(N)c5ccccc54)cc3)cc2)c2ccccc2c1N
- IC50 (HT-29 [1]): 3.3 µM
- IC50 (Choline kinase alpha): > 200 µM

Compound: Clc1ccc2c(N3CCCC3)cc[n+](Cc3ccc(-c4ccc(C[n+]5ccc(N6CCCC6)c6ccc(Cl)cc65)cc4)cc3)c2c1
- IC50 (HT-29 [1]): 2.4 µM
- IC50 (Choline kinase alpha): 19.8 µM

Compound: CN(c1ccccc1)c1cc[n+](Cc2cccc(-c3cccc(C[n+]4ccc(N(C)c5ccccc5)c5ccc(Cl)cc54)c3)c2)c2cc(Cl)ccc12
- IC50 (HT-29 [1]): 1 µM
- IC50 (Choline kinase alpha): 3.1 µM

Compound: CN(c1ccc(Cl)cc1)c1cc[n+](Cc2cccc(-c3cccc(C[n+]4ccc(N(C)c5ccc(Cl)cc5)c5ccc(Cl)cc54)c3)c2)c2cc(Cl)ccc12
- IC50 (HT-29 [1]): 1.9 µM

Compound: Cc1c[n+](Cc2cccc(-c3cccc(C[n+]4cc(C)c(N)c5ccccc54)c3)c2)c2ccccc2c1N
- IC50 (HT-29 [1]): 4.4 µM
- IC50 (Choline kinase alpha): 11.9 µM

Compound: c1ccc2c(c1)c(N1CCCCCC1)cc[n+]2Cc1ccc(-c2ccc(C[n+]3ccc(N4CCCCCC4)c4ccccc43)cc2)cc1
- IC50 (HT-29 [1]): 0.5 µM
- IC50 (Choline kinase alpha): 2.2 µM

Compound: Nc1cc[n+](Cc2ccc(-c3ccc(C[n+]4ccc(N)c5ccccc54)cc3)cc2)c2ccccc12
- IC50 (HT-29 [1]): 2.2 µM
- IC50 (Choline kinase alpha): 81.1 µM

Compound: Nc1cc[n+](Cc2cccc(-c3cccc(C[n+]4ccc(N)c5ccccc54)c3)c2)c2ccccc12
- IC50 (HT-29 [1]): 1.9 µM
- IC50 (Choline kinase alpha): 1.2 µM

Compound: Clc1ccc2c(N3CCCC3)cc[n+](Cc3ccc(CCc4ccc(C[n+]5ccc(N6CCCC6)c6ccc(Cl)cc65)cc4)cc3)c2c1
- IC50 (HT-29 [1]): 0.2 µM

Compound: Cc1c(N)ccc2c(N(C)c3ccc(Cl)cc3)cc[n+](Cc3ccc(-c4ccc(C[n+]5ccc(N(C)c6ccc(Cl)cc6)c6ccc(N)c(C)c65)cc4)cc3)c12
- IC50 (HT-29 [1]): 19.4 µM
- IC50 (Choline kinase alpha): 46.1 µM

Compound: CN(C)c1cc[n+](Cc2cccc(-c3cccc(C[n+]4ccc(N(C)C)c5ccccc54)c3)c2)c2ccccc12
- IC50 (HT-29 [1]): 1.6 µM
- IC50 (Choline kinase alpha): 4.4 µM

Compound: Nc1cc[n+](Cc2ccc(CCc3ccc(C[n+]4ccc(N)c5ccc(Cl)cc54)cc3)cc2)c2cc(Cl)ccc12
- IC50 (HT-29 [1]): 1.9 µM
- IC50 (Choline kinase alpha): > 200 µM

Compound: CN(c1ccc(Cl)cc1)c1cc[n+](Cc2ccc(CCc3ccc(C[n+]4ccc(N(C)c5ccc(Cl)cc5)c5ccccc54)cc3)cc2)c2ccccc12
- IC50 (HT-29 [1]): 0.7 µM

Compound: CN(c1ccc(Cl)cc1)c1cc[n+](Cc2cccc(-c3cccc(C[n+]4ccc(N(C)c5ccc(Cl)cc5)c5ccccc54)c3)c2)c2ccccc12
- IC50 (HT-29 [1]): 1.5 µM

Compound: CN(C)c1cc[n+](Cc2ccc(CCc3ccc(C[n+]4ccc(N(C)C)c5ccc(Cl)cc54)cc3)cc2)c2cc(Cl)ccc12
- IC50 (HT-29 [1]): 0.27 µM
- IC50 (Choline kinase alpha): 9 µM
- IC50 (HT-29 [2]): 0.45 µM

Compound: Cc1c(N)ccc2c(N(C)c3ccc(Cl)cc3)cc[n+](Cc3ccc(CCc4ccc(C[n+]5ccc(N(C)c6ccc(Cl)cc6)c6ccc(N)c(C)c65)cc4)cc3)c12
- IC50 (HT-29 [1]): 19.5 µM
- IC50 (Choline kinase alpha): 57.5 µM

Compound: c1cc(C[n+]2ccc(N3CCCCCC3)c3ccccc32)cc(-c2cccc(C[n+]3ccc(N4CCCCCC4)c4ccccc43)c2)c1
- IC50 (HT-29 [1]): 0.5 µM
- IC50 (Choline kinase alpha): 0.5 µM

Compound: Cc1c(N)ccc2c(N(C)c3ccccc3)cc[n+](Cc3ccc(-c4ccc(C[n+]5ccc(N(C)c6ccccc6)c6ccc(N)c(C)c65)cc4)cc3)c12
- IC50 (HT-29 [1]): 25.2 µM
- IC50 (Choline kinase alpha): 96.1 µM

Compound: Cc1c(N)ccc2c(N(C)c3ccc(Cl)cc3)cc[n+](Cc3cccc(-c4cccc(C[n+]5ccc(N(C)c6ccc(Cl)cc6)c6ccc(N)c(C)c65)c4)c3)c12
- IC50 (HT-29 [1]): 33 µM
- IC50 (Choline kinase alpha): 147 µM

Compound: CN(c1ccccc1)c1cc[n+](Cc2ccc(-c3ccc(C[n+]4ccc(N(C)c5ccccc5)c5ccccc54)cc3)cc2)c2ccccc12
- IC50 (HT-29 [1]): 0.6 µM
- IC50 (Choline kinase alpha): 3 µM

Compound: CN(c1ccc(Cl)cc1)c1cc[n+](Cc2ccc(-c3ccc(C[n+]4ccc(N(C)c5ccc(Cl)cc5)c5ccccc54)cc3)cc2)c2ccccc12 [RSM-932A]
- IC50 (HT-29 [1]): 1.2 µM
